Laboratory results from US8288374B2, “Medicinal composition containing benzo[a]phenoxazine compound as the active ingredient for prevention or treatment of protozoal disease” (Hoshi University, priority 2008, dated 2012).
≈ marks a conversion by molar mass, not a printed value. Where two headings read alike, the source gives them in different places.

Legend:
[1] = system: Trypanosoma cruzi (Tulahuen C2C4 strain); test: American trypanosome protozoa growth inhibition screening test; format: cell-based; conditions: Trypanosoma cruzi, Table 5, in rat L6 cells, 96 hours, CPRG/Nonidet, read-out: 50% Growth inhibition concentration Trypanosoma cruzi
Experimental: In the present experiment, amastigote and trypomastigote infected with rat L6 cells of protozoa of Trypanosoma cruzi (Tulahuen C2C4 starin) were used. As medium used in the test, RPMI 1640 medium containing L6 cells was supplemented so that L-glutamine (200 mM) become 1%, fetal bovine serum becomes 10%, which was cultured under CO2 concentration 5%, at 37° C.
The compounds of the present invention to be used in the present test and the positive control drug (benznidazole) were dissolved in DMSO to make a test solution of a predetermined concentration.
A medium containing 5×10^3 protozoa was added to wells of a 96-well culture plate, and pre-cultured for 48 hours. After replacing the medium, test solution containing drug of a predetermined concentration or a drug-free DMSO was added. Test solutions were taken by duplicates.
After culturing the culture plate in an incubator for 96 hours, growth inhibition activity was tested. Test was conducted as follows. 50 μL of CPRG/Nonidet was added to each well, and allowed to rest for 2 to 6 hours. Next, the culture plate was placed on a fluorescent micro-plate reader. The absorbance was measured at 540 nm, and the trypanosome infection rate of the test solution added group and control group were calculated.
(§1) Growth inhibition rate (%)={1−(b−a)/(c−a)}×100 • a: early infection rate • b: infection rate when test solution was added • c: infection rate of the control

Plasmodium falciparum K1 = test: Chloroquine resistant-Plasmodium falciparum growth inhibition screening test; format: cell-based; conditions: EC50 against rat L6 cells / EC50 against P. falciparum K1
Experimental: In the present experiment, protozoa of plasmodium falsiparum K1 strain was used. RPMI-1640 medium sterilized with a filter to which human serum was added to be 5%, was used in the experiment. Malarial parasites were cultured under 3% O2 concentration, 4% CO2 concentration, 93% N2 concentration, and at a temperature of 37° C.
The compounds of the present invention to be used in the present test and the positive control drug (chloroquine) were dissolved in DMSO to make a test solution of a predetermined concentration. Cultured malaria parasite infected-erythrocytes were collected by centrifugation, and diluted with non-infected erythrocyte so that the early infection rate was 0.15%. Hematocrit level at that time was 2.5%.
200 μL of malaria infected solution was added to wells of a 96-well culture plate, and adjusted by adding a test solution containing drug of a predetermined concentration or a drug-free DMSO. Test solutions were taken by duplicates.
[…] […] Radiation intensity was measured with a beta plate liquid scintillation counter (Wallac), and malarial parasite infection rates of the test solution added group and the control group were calculated.
Growth inhibition rate (%)={1−(b−a)/(c−a)}×100 • a: early infection rate • b: infection rate when test solution was added • c: infection rate of the control 3. Growth Inhibition Test of Rat L6 Cells
Antimalarial activity of a sample was estimated from EC50 values of the sample against chloroquine resistant-Plasmodium falciparum and rat L6 cells. […] It means that the larger the value of the selection toxity, the less the risk of the side effect is. Chemotherapy index=(EC50 value of a sample against rat L6 cells)/(EC50 value of a sample against chloroquine resistant-Plasmodium falsiparum)

[2] = system: Leishmania donovani (MHOM/ET/67/L82 strain); test: Leishmania protozoa growth inhibition screening test; format: cell-based; conditions: Leishmania donovani; Table 5; amastigotes, 72 hours, Alamar Blue; read-out: 50% Growth inhibition concentration Leishmania donovani
Experimental: In the present experiment, Leishmania donovani (MHOM/ET/67/L82 strain) was used. Protozoa was subcultured in Syrian Golden hamster, from which an amastigote was obtained. In the experiment, SM medium supplemented with 10% heat-treated bovine fetal serum was used, which was adjusted to pH 5.4, and cultured in an atmosphere of 5% CO2 concentration, at 37° C.
The compounds of the present invention to be used in the present test and the positive control drug (miltefosine) were dissolved in DMSO to make a test solution of a predetermined concentration.
After adding a medium containing a predetermined number of protozoa to wells of a 96-well culture'plate and pre-treating, concentration of the amastigote was measured with CASY cell analysis system (Scharfe, Germany). Then, test solution containing a drug of a predetermined concentration or a drug-free DMSO was added. Test solutions were taken by duplicates.
After culturing the culture plate for 72 hours in an incubator, growth inhibition activity was tested. Test was conducted as follows. 10 μL of Alamar Blue aqueous solution was added to each well, and the resultant was further cultured for 2 hours. Next, the culture plate was placed on a fluorescent micro-plate reader (Spectramax Gemeni XS; US Molecular Device), radiated at an excited wavelength of 536 nm. Fluorescent intensity was measured at 588 nm, and infection rate of leishmania protozoa of the test solution added group and control was calculated.
as §1

Rat L6 cells = test: Growth inhibition test of rat L6 cells; format: cell-based; conditions: Table 1, 72 hours, Alamar Blue, read-out: 50% Growth inhibition concentration Cytoxicity L6
Experimental: Rat derived-L6 cells (rat skeletal myoblast cell) were used. A medium, RPMI1640 medium was supplemented so that L-glutamin (200 mM) is 1%, and fetal bovine serum 10%, and the medium was cultured under CO2 concentration 5%, at 37° C.
The compounds of the present invention and the control drugs to be used in the test were dissolved in DMSO, to make a test solution of a predetermined concentration.
Pre-culture was conducted and medium containing cells which have entered the logarithmic growth phase was taken to wells of a 96-well culture plate. Then, a test solution containing drug of a predetermined concentration or a drug-free DMSO was added. Test solutions were taken by duplicates.
Culture plate was cultured for 72 hours in an incubator, to test the growth inhibition activity. Test was conducted as follows. 10 μL of Alamar Blue aqueous solution was added to each well, and the resultant was further cultured for 2 hours. Next, the culture plate was placed on a fluorescent micro-plate reader (Spectramax Gemeni XS; US Molecular Device), radiated at an excited wavelength of 536 nm. Fluorescent intensity was measured at 588 nm, and residual rate of L6 cells of the test solution added group, and that of the control was calculated.
Growth inhibition rate (%)={(C−A)/(B−A)}×100 • A: Primary cell count • B: cell count of control, 3 days after • C: cell count of wells added with a sample, 3 days after 4. Determination of Drug Efficacy Against Chloroquine Resistant-Plasmodium

[3] = system: Trypanosoma brucei rhodesiense (STIB 900 strain); test: African trypanosome protozoa growth inhibition screening test; format: cell-based; conditions: read-out: 50% Growth inhibition concentration Trypanosoma brucei rhod.
Experimental: In the present experiment, protozoa of Tripanosoma brucei rhodensiense (STIB 900 Strain), a trypomastigote living in blood stream, was used. The medium used in the experiment was a MEM medium which was sterilized with a filter and supplemented with 25 mM N-2-hydroxyeihylpiperazine-2-ethansulfonic acid (HEPES), 1 g/L glucose, 1% MEM non-essential amino acid, 0.2 mM 2-mercaptoethanol, 2 mM sodium pyruvate, 0.1 mM hypoxanthine, and 15% heat-treated horse serum. The protozoa was cultured in an atmosphere of CO2 concentration 5%, at a temperature of 37° C.
The compounds of the present invention to be used in the present test and the positive control drug (melarsoprol) were dissolved in dimethylsulfoxide (DMSO) to make a test solution of a predetermined concentration.
A medium containing 8×10^3 protozoa, and a test solution containing a drug of a predetermined concentration of a drug-free DMSO were added to wells of a 96-well culture plate, and subsequently, medium was added so that the amount in each well becomes 100 μL. Test solutions were taken by duplicates.
After culturing the culture plate for 72 hours in an incubator, growth inhibition activity was tested. Test was conducted as follows. 10 μL of Alamar Blue aqueous solution was added to each well, and the resultant was further cultured for 2 hours. Next, the culture plate was placed on a fluorescent micro-plate reader (Spectramax Gemeni XS; US Molecular Device), radiated at an excited wavelength of 536 nm. Fluorescent intensity was measured at 588 nm, to calculate the trypanosome protozoa infected rate of the test solution added-group, and of the control group.
as §1

Structure (SMILES)	EC50 [1]	Selective toxicity (Plasmodium falciparum K1)	EC50 [2]	melting point	EC50 (Rat L6 cells)	EC50 ([3]; Table 5, 72 hours, Alamar Blue)	EC50 ([3]; 72 h)
O=C(Cn1ccnc1[N+](=O)[O-])NCc1ccccc1 [Benznidazole, benznidazole, reference compound]	0.225 µg/mL (≈ 0.866 µM)						
CCN(CC)c1ccc2nc3c4ccc(Br)cc4c(=Nc4ccncc4)cc-3oc2c1 [Compound 1G, 3-Bromo-N,N-diethyl-5-(pyridin-4-ylimino)-5H-benzo[a]phenoxazin-9-amine]	> 30 µg/mL	>18000	19.1 µg/mL (≈ 40.4 µM)	269 to 271 °C	> 90 µg/mL	61 µg/mL (≈ 129 µM)	
CCN(CC)c1ccc2nc3c4ccccc4c(=Nc4nc5ccc(Cl)cc5s4)cc-3oc2c1 [Compound 1I, 5-(6-Chlorobenzo[d]thiazol-2-ylimino)-N,N-diethyl-5H-benzo[a]phenoxazin-9-amine]	> 30 µg/mL	>210	19.6 µg/mL (≈ 40.5 µM)	229 to 231 °C	> 90 µg/mL	44.8 µg/mL (≈ 92.4 µM)	
CCN(CC)c1ccc2nc3c4ccccc4c(=Nc4cc(C)on4)cc-3oc2c1 [Compound 1J, N,N-Diethyl-5-(5-methylisoxazol-3-ylimino)-5H-benzo[a]phenoxazin-9-amine]	21.8 µg/mL (≈ 54.8 µM)	7360	1.86 µg/mL (≈ 4.67 µM)	195 to 196 °C	36.8 µg/mL (≈ 92.4 µM)	11.8 µg/mL (≈ 29.6 µM)	
CCN(CC)c1ccc2nc3c4ccccc4c(=Nc4ncc(Cl)cc4Cl)cc-3oc2c1 [Compound 1K, 5-(3,5-Dichloropyridin-2-ylimino)-N,N-diethyl-5H-benzo[a]phenoxazin-9-amine]	> 30 µg/mL	2866	8.13 µg/mL (≈ 17.5 µM)	192 to 193 °C	83.1 µg/mL (≈ 179 µM)	38.6 µg/mL (≈ 83.3 µM)	
CCN(CC)c1ccc2nc3c4ccccc4c(=Nc4ncccn4)cc-3oc2c1 [Compound 1L, N,N-Diethyl-5-(pyrimidin-2-ylimino)-5H-benzo[a]phenoxazin-9-amine]	1.78 µg/mL (≈ 4.5 µM)	2700	0.662 µg/mL (≈ 1.67 µM)	208 to 210 °C	5.4 µg/mL (≈ 13.7 µM)	0.804 µg/mL (≈ 2.03 µM)	
CCN(CC)c1ccc2nc3c4ccccc4c(=Nc4nc5ccc(OC)cc5s4)cc-3oc2c1 [Compound 1M, N,N-Diethyl-5-(6-methoxybenzo[d]thiazol-2-ylimino)-5H-benzo[a]phenoxazin-9-amine]	> 30 µg/mL	1492	13.8 µg/mL (≈ 28.7 µM)	197 to 198 °C	80.6 µg/mL (≈ 168 µM)	40 µg/mL (≈ 83.2 µM)	
Nc1nc(N)nc(Nc2ccc([As]3SCC(CO)S3)cc2)n1 (stereo not drawn) [Melarsoprol, melarsoprol, reference compound]							0.0024 µg/mL
CCCCCCCCCCCCCCCCOP(=O)([O-])OCC[N+](C)(C)C [Milfotesine, miltefosine, reference compound]			0.114 µg/mL (≈ 0.278 µM)				
